One molecule from ChEMBL document CHEMBL4513151, “CO-ADD screening of Institut Català d'Investigació Química (Spain) compounds” can be followed below.

Structures are written as SMILES. Converted amounts (≈) assume the structure as drawn.

The test system of one experiment is Acinetobacter baumannii. In words: microbe, parasite or virus in culture. To be noted: ATCC 19606, 18 h, ASSAY_TEST Inhibition of Bacterial Growth, detection method Absorption (OD600), MEDIA CAMHB, plate type 384well, NBS, CORNING #3640.
In another experiment the test system is Staphylococcus aureus. In words: microbe, parasite or virus in culture. The following applies: ATCC 43300, 18 h, ASSAY_TEST Inhibition of Bacterial Growth, detection method Absorption (OD600), MEDIA CAMHB, plate type 384well, NBS, CORNING #3640.
For another experiment, the system named is Pseudomonas aeruginosa. The experiment in a line: microbe, parasite or virus in culture. To be noted: ATCC 27853, 18 h, ASSAY_TEST Inhibition of Bacterial Growth, detection method Absorption (OD600), MEDIA CAMHB, plate type 384well, NBS, CORNING #3640.
The next experiment has as its system Klebsiella pneumoniae. In words: microbe, parasite or virus in culture. To be noted: ATCC 700603, 18 h, ASSAY_TEST Inhibition of Bacterial Growth, detection method Absorption (OD600), MEDIA CAMHB, plate type 384well, NBS, CORNING #3640.
For another experiment, the system named is Candida albicans. In words: microbe, parasite or virus in culture. To be noted: ATCC 90028, ASSAY_TEST Inhibition of Fungal Growth, detection method Absorption (OD530), plate type 384well, NBS, CORNING #3640.
In the next experiment the test system is Escherichia coli. The experiment in a line: microbe, parasite or virus in culture. The following applies: ATCC 25922, 18 h, ASSAY_TEST Inhibition of Bacterial Growth, detection method Absorption (OD600), MEDIA CAMHB, plate type 384well, NBS, CORNING #3640.
In another experiment the test system is HEK293. In words: cells. The class given is functional. The following applies: Homo sapiens, ATCC CRL1573, HEK293; ASSAY_TEST Inhibition of Cell Viability; detection method Resazurin; Fluorescence (ex560/em590); MEDIA DMEM with 10% FBS; plate type 384well; TC; CORNING #3712; time 18 hr.

Description for Acinetobacter baumannii: Antibacterial activity against Acinetobacter baumannii ATCC 19606 (CO-ADD:GN_034); MIC in CAMBH media using NBS plates, by OD600
Description for Candida albicans: Antifungal activity against Candida albicans ATCC 90028 (CO-ADD:FG_001); MIC in YNB media using NBS plates, by OD630
Description for Cryptococcus neoformans: Antifungal activity against Cryptococcus neoformans H99 ATCC 208821 (CO-ADD:FG_002); MIC in YNB media using NBS plates, by Resazurin OD(600-570)
Description for Escherichia coli: Antibacterial activity against Escherichia coli ATCC 25922 (CO-ADD:GN_001); MIC in CAMBH media using NBS plates, by OD(600)
Description for Klebsiella pneumoniae: Antibacterial activity against Klebsiella pneumoniae MDR ATCC 70063 (CO-ADD:GN_003); MIC in CAMBH media using NBS plates, by OD(600)
Description for Pseudomonas aeruginosa: Antibacterial activity against Pseudomonas aeruginosa ATCC 27853 (CO-ADD:GN_042); MIC in CAMBH media using NBS plates, by OD(600)
Description for Staphylococcus aureus: Antibacterial activity against Staphylococcus aureus MRSA ATCC 43300 (CO-ADD:GP_020); MIC in CAMBH media, using NBS plates, by OD(600)

The term CC50 denotes the concentration that lowers cell viability or growth by half. `C[C@]12CC[C@@H](O1)[C@H]1C=C[C@H](OC(=O)c3ccccc3)[C@H]12`: the MIC is > 32 µg/mL in the experiment on Acinetobacter baumannii; > 32 µg/mL against Cryptococcus neoformans; 32 µg/mL (≈ 118 µM) with Staphylococcus aureus; > 32 µg/mL in the experiment on Pseudomonas aeruginosa; > 32 µg/mL in the experiment with Klebsiella pneumoniae; > 32 µg/mL with Candida albicans. The MIC in the experiment on Escherichia coli was > 32 µg/mL. In addition, the half-maximal cytotoxic concentration (CC50) in the experiment on HEK293 was > 32 µg/mL.
